The values that follow are results of earlier work, collected in patent US9555113B2, “Compositions with a rheological modifier to reduce dissolution variability” (Durect Corporation, priority 2013, dated 2017).

Where two headings read alike, the source gives them in different places.

As to Sucrose Acetate Isobutyrate [SAIB], the viscosity entry runs as follows: (pure SAIB at 80° C.) “approximately 600 cP”; (pure SAIB at ambient temperature (RT)) “approximately 2,000,000 cP”.
